Experimental data: patent US20060252807A1, “Novel ortho-terphenyl inhibitors of p38 kinase and methods of treating inflammatory disorders” (Kalypsys, Inc., priority 2005, published 2006)

The compounds below were run against T1, active p38 alpha enzyme (Upstate Biotechnology) (Homo sapiens, UniProt Q16539) (assay: p38α biochemical assay (ATP turnover, luminescent detection, Cambrex PKlight)). Settings: p38α biochemical assay, Table 1 Biological Activity.
T1 construct: purchased Upstate Biotechnology
T1 sequence (Q16539 whole entry): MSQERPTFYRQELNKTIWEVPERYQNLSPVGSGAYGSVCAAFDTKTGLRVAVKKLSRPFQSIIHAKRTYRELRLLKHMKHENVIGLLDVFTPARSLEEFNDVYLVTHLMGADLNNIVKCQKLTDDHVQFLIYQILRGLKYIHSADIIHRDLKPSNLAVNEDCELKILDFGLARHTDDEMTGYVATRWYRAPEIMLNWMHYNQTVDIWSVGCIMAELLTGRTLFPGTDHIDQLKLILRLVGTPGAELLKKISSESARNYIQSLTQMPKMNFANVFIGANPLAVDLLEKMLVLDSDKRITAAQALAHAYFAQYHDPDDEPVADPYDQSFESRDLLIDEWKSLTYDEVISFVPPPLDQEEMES
Method in brief: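 Luminescent PKlight readout of total ATP consumption follows a 2 h, 30C kinase reaction. Enzyme and MapkapK2 substrate run with 1.4 uM ATP (final) in buffer containing Mg2+, Ca2+, chelators, glycerol, reducing agent and BSA; test compounds added by pintool from DMSO.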

`CC(C)NC(=O)c1csc(-c2oc(CNC(=O)c3cccc(F)c3F)nc2-c2ccc(F)cc2)n1` [Example 158] and `CC(C)NC(=O)c1csc(-c2oc(CNC(=O)c3cccc(Cl)c3Cl)nc2-c2ccc(F)cc2)n1` [Example 251] cannot be ordered by IC50: at most 1000 nM for the first, at most 1000 nM for the second.

`CC(C)NC(=O)c1csc(-c2oc(CNC(=O)Cc3ccc(C(F)(F)F)cc3)nc2-c2ccc(F)cc2)n1` [Example 279] and `CC(C)NC(=O)c1csc(-c2oc(CNC(=O)c3ccc(N(C)C=O)cc3)nc2-c2ccc(F)cc2)n1` [Example 210] cannot be ordered by IC50: over 1000 nM for the first, over 1000 nM for the second.

`CC(C)NC(=O)c1csc(-c2oc(CNC(=O)c3ccc([N+](=O)[O-])c(O)c3)nc2-c2ccc(F)cc2)n1` [Example 232] and `Cc1ccc(C(=O)NCc2nc(-c3ccc(F)cc3)c(-c3nc(C(=O)NC(C)C)cs3)o2)cc1F` [Example 149] cannot be ordered by IC50: over 1000 nM for the first, over 1000 nM for the second.

`COc1cc(C(=O)NCc2onc(-c3ccc(F)cc3)c2-c2nc(C(=O)NC(C)C)cs2)cc(OC)c1OC` [Example 760] and `COc1cc(OC)cc(C(=O)NCc2onc(-c3ccc(F)cc3)c2-c2nc(C(=O)NC(C)C)cs2)c1` [Example 702] cannot be ordered by IC50: over 1000 nM for the first, over 1000 nM for the second.

`COc1cccc(O)c1C(=O)NCc1nc(-c2ccc(F)cc2)c(-c2nc(C(=O)NC(C)C)cs2)o1` [Example 186] and `CCN(CC)c1ccc(C(=O)NCc2nc(-c3ccc(F)cc3)c(-c3nc(C(=O)NC(C)C)cs3)o2)cc1` [Example 260] cannot be ordered by IC50: over 1000 nM for the first, at most 1000 nM for the second.

`CC(C)NC(=O)c1csc(-c2c(-c3ccc(F)cc3)noc2CNC(=O)c2cccnc2)n1` [Example 587] and `CC(C)NC(=O)c1csc(-c2c(-c3ccc(F)cc3)noc2CNC(=O)c2cncc(Br)c2)n1` [Example 752] cannot be ordered by IC50: over 1000 nM for the first, over 1000 nM for the second.

`Cc1ccc(F)cc1C(=O)N1CCN(Cc2nc(-c3ccc(F)cc3)c(-c3nc(C(=O)NC(C)C)cs3)o2)CC1` [Example 387] and `CC(C)NC(=O)c1csc(-c2oc(CN3CCN(C(=O)/C=C/c4ccccc4F)CC3)nc2-c2ccc(F)cc2)n1` [Example 415] cannot be ordered by IC50: over 1000 nM for the first, over 1000 nM for the second.

`CC(C)NC(=O)c1csc(-c2c(-c3ccc(F)cc3)noc2CNC(=O)C(C)NC(=O)OC(C)(C)C)n1` (stereo not drawn) [Example 723] and `CC(C)NC(=O)c1csc(-c2oc(CNC(=O)C(NC(=O)OC(C)(C)C)C(C)C)nc2-c2ccc(F)cc2)n1` (stereo not drawn) [Example 299] cannot be ordered by IC50: over 1000 nM for the first, over 1000 nM for the second.

`CC(C)NC(=O)c1csc(-c2c(-c3ccc(F)cc3)noc2CNC(=O)C2CN(C(=O)OC(C)(C)C)CCN2)n1` (stereo not drawn) [Example 790] and `Cc1cccc(C(=O)NCc2onc(-c3ccc(F)cc3)c2-c2nc(C(=O)NC(C)C)cs2)c1O` [Example 617] cannot be ordered by IC50: over 1000 nM for the first, over 1000 nM for the second.

`CC(C)NC(=O)c1csc(-c2[nH]c(N)nc2-c2ccc(F)cc2)n1` [Example 96, 2-|2-Amino-5-(4-fluoro-phenyl)-3H-imidazol-4-yl|-thiazole-4-carboxylic acid isopropylamide] and `CC(C)NC(=O)c1csc(-c2c(-c3ccc(F)cc3)noc2CNC(=O)c2c(F)cccc2F)n1` [Example 632] cannot be ordered by IC50: at most 1000 nM for the first, over 1000 nM for the second.

`Cc1onc(-c2ccc(Cl)cc2)c1-c1ccn(C(=O)NC(CO)CO)n1` [Example 14, 3-|3-(4-Chloro-phenyl)-5-methyl-isoxazol-4-yl|-pyrazole-1-carboxylic acid (2-hydroxy-1-hydroxymethyl-ethyl)-amide] and `Cc1onc(-c2ccc(Cl)cc2)c1-c1ccn(C(=O)NC(C)CO)n1` (stereo not drawn) [Example 6, 3-|3-(4-Chloro-phenyl)-5-methyl-isoxazol-4-yl|-pyrazole-1-carboxylic acid (2-hydroxy-1-methyl-ethyl)-amide] cannot be ordered by IC50: over 1000 nM for the first, at most 1000 nM for the second.

`CC(C)NC(=O)c1csc(-c2c(-c3ccc(F)cc3)noc2CNC(=O)c2cc(C(C)C)cc(C(C)C)c2O)n1` [Example 779] and `CC(C)NC(=O)c1csc(-c2oc(CN3CCN(C(=O)CCc4ccccc4Br)CC3)nc2-c2ccc(F)cc2)n1` [Example 546] cannot be ordered by IC50: over 1000 nM for the first, over 1000 nM for the second.

`CC(C)NC(=O)c1csc(-c2oc(CN3CCN(C(=O)C4CCCCC4)CC3)nc2-c2ccc(F)cc2)n1` [Example 355] and `Cc1onc(-c2ccc(Cl)cc2)c1-c1ccn(C(=O)NC(C)C)n1` [Example 2, 3-|3-(4-Chloro-phenyl)-5-methyl-isoxazol-4-yl|-pyrazole-1-carboxylic acid isopropylamide] cannot be ordered by IC50: at most 1000 nM for the first, at most 1000 nM for the second.

Same assay, conditions: p38α kinase; Table 1 Biological Activity

`CSc1ccccc1NCc1nc(-c2ccc(F)cc2)c(-c2nc(C(=O)NC(C)C)cs2)o1` [Example 1343] and `COc1cccc(NCc2nc(-c3ccc(F)cc3)c(-c3nc(C(=O)NC(C)C)cs3)o2)c1` [Example 1324] cannot be ordered by IC50: over 1000 nM for the first, over 1000 nM for the second.

`CC(C)NC(=O)c1csc(-c2oc(CN3CCN(c4ccccc4F)CC3)nc2-c2ccc(F)cc2)n1` [Example 1253] and `CC(C)NC(=O)c1csc(-c2c(-c3ccc(F)cc3)noc2CN2CCN(c3ccccc3)CC2)n1` [Example 1567] cannot be ordered by IC50: over 1000 nM for the first, over 1000 nM for the second.

`CC(C)NC(=O)c1csc(-c2c(-c3ccc(F)cc3)n[nH]c2C2CCN(C(=O)Cc3ccc(O)c(F)c3)CC2)n1` [Example 905] and `Cc1ccccc1OCC(=O)N1CCC(c2[nH]nc(-c3ccc(F)cc3)c2-c2nc(C(=O)NC(C)C)cs2)CC1` [Example 894] cannot be ordered by IC50: over 1000 nM for the first, over 1000 nM for the second.

`CCC(C)C(NC(=O)OC(C)(C)C)C(=O)N1CCC(c2[nH]nc(-c3ccc(F)cc3)c2-c2nc(C(=O)NC(C)C)cs2)CC1` (stereo not drawn) [Example 1042] and `CC(C)NC(=O)c1csc(-c2c(-c3ccc(F)cc3)n[nH]c2C2CCN(C(=O)C(NC(=O)OC(C)(C)C)C(C)C)CC2)n1` (stereo not drawn) [Example 1012] cannot be ordered by IC50: over 1000 nM for the first, over 1000 nM for the second.

`Cc1nc(-c2ccc(F)cc2)c(-c2nc(C(=O)Nc3ccccc3COc3ccccc3)cs2)s1` [Example 2019] and `Cc1nc(-c2ccc(F)cc2)c(-c2nc(C(=O)Nc3ccc(Cl)c(Cl)c3)cs2)s1` [Example 2007] cannot be ordered by IC50: over 1000 nM for the first, over 1000 nM for the second.

`Cc1nc(-c2ccc(F)cc2)c(-c2nc(C(=O)NC3CCN(Cc4ccccc4)CC3)cs2)s1` [Example 1826] and `Cc1nc(-c2ccc(F)cc2)c(-c2nc(C(=O)NC3CCCCC3C)cs2)s1` (stereo not drawn) [Example 1747] cannot be ordered by IC50: over 1000 nM for the first, at most 1000 nM for the second.

`CC(C)NC(=O)c1csc(-c2c(-c3ccc(F)cc3)ncn2C2CCN(CCO)CC2)n1` [Example 2193, 2-{5-(4-Fluoro-phenyl)-3-|1-(2-hydroxy-ethyl)-piperidin-4-yl|-3H-imidazol-4-yl}-thiazole-4-carboxylic acid isopropylamide] and `CC(C)NC(=O)c1csc(-c2c(-c3ccc(F)cc3)noc2CN2CCCCC2C)n1` (stereo not drawn) [Example 1522] cannot be ordered by IC50: over 1000 nM for the first, over 1000 nM for the second.

`CCN(CCO)Cc1nc(-c2ccc(F)cc2)c(-c2nc(C(=O)NC(C)C)cs2)o1` [Example 1195] and `CCCNCc1nc(-c2ccc(F)cc2)c(-c2nc(C(=O)NC(C)C)cs2)o1` [Example 1055] cannot be ordered by IC50: over 1000 nM for the first, over 1000 nM for the second.

`Cc1cc(C)cc(NC(=O)c2csc(-c3sc(C)nc3-c3ccc(F)cc3)n2)c1` [Example 1971] and `Cc1cc(C)cc(NCc2nc(-c3ccc(F)cc3)c(-c3nc(C(=O)NC(C)C)cs3)o2)c1` [Example 1323] cannot be ordered by IC50: over 1000 nM for the first, over 1000 nM for the second.

`Cc1ccc(C)c(CNCc2onc(-c3ccc(F)cc3)c2-c2nc(C(=O)NC(C)C)cs2)c1` [Example 1445] and `CC(C)NC(=O)c1csc(-c2c(-c3ccc(F)cc3)noc2CNCc2ccccc2F)n1` [Example 1436] cannot be ordered by IC50: over 1000 nM for the first, over 1000 nM for the second.

`COCCNCc1nc(-c2ccc(F)cc2)c(-c2nc(C(=O)NC(C)C)cs2)o1` [Example 1065] and `CC(C)CN(C)Cc1nc(-c2ccc(F)cc2)c(-c2nc(C(=O)NC(C)C)cs2)o1` [Example 1192] cannot be ordered by IC50: at most 1000 nM for the first, over 1000 nM for the second.

`CC(C)NC(=O)c1csc(-c2c(-c3ccc(F)cc3)noc2CNCc2ccc(N(C)C)cc2)n1` [Example 1499] and `CCN(Cc1onc(-c2ccc(F)cc2)c1-c1nc(C(=O)NC(C)C)cs1)C(C)C` [Example 1518] cannot be ordered by IC50: over 1000 nM for the first, over 1000 nM for the second.

`CC(C)CCCC(C)NC(=O)c1csc(-c2c(-c3ccc(F)cc3)n[nH]c2C2CCNCC2)n1` (stereo not drawn) [Example 2086] and `CC(CO)NC(=O)c1csc(-c2c(-c3ccc(F)cc3)n[nH]c2C2CCNCC2)n1` (stereo not drawn) [Example 2042] cannot be ordered by IC50: over 1000 nM for the first, at most 1000 nM for the second.

`CC(C)NC(=O)c1csc(-c2c(-c3ccc(F)cc3)noc2CNc2cc(C(F)(F)F)ccc2F)n1` [Example 1689] and `CC(C)NC(=O)c1csc(-c2oc(CNCc3ccc(F)cc3F)nc2-c2ccc(F)cc2)n1` [Example 1134] cannot be ordered by IC50: over 1000 nM for the first, over 1000 nM for the second.

`O=C(NCC1CCCCC1)c1csc(-c2c(-c3ccc(F)cc3)n[nH]c2C2CCNCC2)n1` [Example 2067] and `O=C(NCc1ccc(Cl)cc1)c1csc(-c2c(-c3ccc(F)cc3)n[nH]c2C2CCNCC2)n1` [Example 2109] cannot be ordered by IC50: over 1000 nM for the first, over 1000 nM for the second.

`CC(C)NC(=O)c1csc(-c2oc(CNCc3cc(F)cc(F)c3)nc2-c2ccc(F)cc2)n1` [Example 1136] and `CCOC(=O)CC(C)NCc1onc(-c2ccc(F)cc2)c1-c1nc(C(=O)NC(C)C)cs1` (stereo not drawn) [Example 1442] cannot be ordered by IC50: over 1000 nM for the first, over 1000 nM for the second.

`CC(C)NC(=O)c1csc(-c2c(-c3ccc(F)cc3)n[nH]c2C2CCN(C(=O)C(C)O)CC2)n1` (stereo not drawn) [Example 815] and `CC(C)NC(=O)c1csc(-c2c(-c3ccc(F)cc3)n[nH]c2C2CCN(C(=O)c3ccc(C(F)(F)F)cc3[N+](=O)[O-])CC2)n1` [Example 1033] cannot be ordered by IC50: at most 1000 nM for the first, over 1000 nM for the second.

`CC(=O)N[C@H]1CCN(C(=O)c2csc(-c3sc(C)nc3-c3ccc(F)cc3)n2)C1` [Example 1870] and `Cc1nc(-c2ccc(F)cc2)c(-c2nc(C(=O)N3CCN(c4cccc(Cl)c4)CC3)cs2)s1` [Example 1924] cannot be ordered by IC50: over 1000 nM for the first, over 1000 nM for the second.

`O=C(NCCc1ccccc1)c1csc(-c2c(-c3ccc(F)cc3)n[nH]c2C2CCNCC2)n1` [Example 2076] and `CCOc1ccccc1CNC(=O)c1csc(-c2c(-c3ccc(F)cc3)n[nH]c2C2CCNCC2)n1` [Example 2124] cannot be ordered by IC50: over 1000 nM for the first, over 1000 nM for the second.

`CC(C)NC(=O)c1csc(-c2c(-c3ccc(F)cc3)n[nH]c2C2CCN(C(=O)c3ccccc3C(=O)c3ccc(F)cc3)CC2)n1` [Example 1037] and `Cc1ccc(Cl)cc1N1CCN(Cc2onc(-c3ccc(F)cc3)c2-c2nc(C(=O)NC(C)C)cs2)CC1` [Example 1610] cannot be ordered by IC50: over 1000 nM for the first, over 1000 nM for the second.
